Structures are written as SMILES. Calls of active or inactive are those of the source. The rule behind the calls is not given here.

The target of data set [1] is Epidermal growth factor receptor (Homo sapiens, UniProt P00533). The experiment in a line: Inhibition of wild type EGFR in human A-431 cells assessed as inhibition of EGF-induced EGFR phosphorylation at Tyr1068 residue at 0.1 to 10 uM pretreated with compound for 4 hrs followed by incubation with EGF for 10 mins by western blot analysis. Type of data set: toxicity, cell-based. As to conditions: a-431, 4.167 h, dose 0.1-10 µM, time 250 min.
Epidermal growth factor receptor, sequence (P00533 whole entry): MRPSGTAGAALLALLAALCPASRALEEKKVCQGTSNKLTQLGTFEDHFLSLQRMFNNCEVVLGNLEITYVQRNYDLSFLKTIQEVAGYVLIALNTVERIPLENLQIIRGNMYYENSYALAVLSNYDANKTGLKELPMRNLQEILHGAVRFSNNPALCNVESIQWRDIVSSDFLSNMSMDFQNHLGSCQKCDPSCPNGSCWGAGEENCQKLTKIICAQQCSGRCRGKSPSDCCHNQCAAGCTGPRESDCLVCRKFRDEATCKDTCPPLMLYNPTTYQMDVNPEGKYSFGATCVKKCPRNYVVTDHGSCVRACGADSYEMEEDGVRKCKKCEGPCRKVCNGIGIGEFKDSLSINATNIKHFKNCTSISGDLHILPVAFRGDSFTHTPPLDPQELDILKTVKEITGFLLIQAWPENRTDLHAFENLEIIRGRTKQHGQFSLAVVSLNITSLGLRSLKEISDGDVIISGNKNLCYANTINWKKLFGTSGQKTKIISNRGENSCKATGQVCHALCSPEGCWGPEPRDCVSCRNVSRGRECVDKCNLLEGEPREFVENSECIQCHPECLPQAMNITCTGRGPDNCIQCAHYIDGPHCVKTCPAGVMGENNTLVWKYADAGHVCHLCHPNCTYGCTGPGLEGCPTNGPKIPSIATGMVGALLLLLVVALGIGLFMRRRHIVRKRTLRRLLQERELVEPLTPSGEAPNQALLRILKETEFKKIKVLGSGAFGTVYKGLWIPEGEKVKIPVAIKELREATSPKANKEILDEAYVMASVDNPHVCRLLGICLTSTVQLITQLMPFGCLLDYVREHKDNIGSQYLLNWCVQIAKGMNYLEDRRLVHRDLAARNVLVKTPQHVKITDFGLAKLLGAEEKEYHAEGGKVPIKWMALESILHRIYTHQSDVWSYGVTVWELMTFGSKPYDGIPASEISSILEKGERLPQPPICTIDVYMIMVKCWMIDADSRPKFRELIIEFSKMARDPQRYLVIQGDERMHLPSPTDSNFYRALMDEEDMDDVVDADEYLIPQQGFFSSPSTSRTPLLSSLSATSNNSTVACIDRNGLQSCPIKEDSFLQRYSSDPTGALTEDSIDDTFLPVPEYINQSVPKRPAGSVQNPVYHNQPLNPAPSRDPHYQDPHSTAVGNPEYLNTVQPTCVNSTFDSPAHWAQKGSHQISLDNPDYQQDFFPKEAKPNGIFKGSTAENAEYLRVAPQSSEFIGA

The test system of data set [2] is HCC827. The experiment in a line: Induction of apoptosis in human HCC827 cells assessed as induction of caspase-3 cleavage pretreated with compound for 4 hrs followed by incubation with EGF for 10 mins by western blot analysis. It counts as functional, cell-based. As to conditions: dose 0.1-10 µM, time 250.0 min.
Data set [3] relates to HCC827. As to the kind of experiment: Inhibition of clonogenicity in human HCC827 cells assessed as inhibition of colony formation incubated for 14 days by crystal violet staining based analysis. As to conditions: dose 0.1-10 µM, time 14.0 day. It counts as functional, cell-based.
In data set [4] the test system is Mus musculus. The experiment in a line: In vivo inhibition of EGFR L858R/T790M mutant in N-(3-((6-Fluoro-2-((4-(4-methylpiperazin-1-yl)phenyl)amino)quinazolin-4-yl)amino)phenyl)acrylamide-resistant human NCI-H1975 cells xenografted BALB/c mouse assessed as inhibition of AKT phosphorylation at Ser473 residue in tumor at 20 mg/kg/day, ip in presence of ACK1 inhibitor, dasatinib by immunoblot analysis. It counts as functional, organism-based.

The subject of data set [5] is Epidermal growth factor receptor (Homo sapiens), P00533 [L858R,T790M]. The experiment in a line: Inhibition of EGFR L858R/T790M mutant in N-(3-((6-Fluoro-2-((4-(4-methylpiperazin-1-yl)phenyl)amino)quinazolin-4-yl)amino)phenyl)acrylamide-resistant human NCI-H1975 cells assessed as inhibition of EGF-induced AKT phosphorylation at Ser473 residue pretreated with compound and ACK1 inhibitor, Bosutinib for 4 hrs followed by incubation with EGF for 10 mins by western blot analysis. It counts as cell-based. As to conditions: time 250.0 min.

For data set [6], the system named is NCI-H1975. As to the kind of experiment: Antitumor activity against human NCI-H1975 cells xenografted in ip dosed BALB/c mouse assessed as decrease in tumor weight. It counts as functional, organism-based. As to conditions: dose 5-20 mg/kg/day.

Epidermal growth factor receptor (Homo sapiens), P00533 [L858R,T790M], sequence (P00533 whole entry T790M/L858R, looked up): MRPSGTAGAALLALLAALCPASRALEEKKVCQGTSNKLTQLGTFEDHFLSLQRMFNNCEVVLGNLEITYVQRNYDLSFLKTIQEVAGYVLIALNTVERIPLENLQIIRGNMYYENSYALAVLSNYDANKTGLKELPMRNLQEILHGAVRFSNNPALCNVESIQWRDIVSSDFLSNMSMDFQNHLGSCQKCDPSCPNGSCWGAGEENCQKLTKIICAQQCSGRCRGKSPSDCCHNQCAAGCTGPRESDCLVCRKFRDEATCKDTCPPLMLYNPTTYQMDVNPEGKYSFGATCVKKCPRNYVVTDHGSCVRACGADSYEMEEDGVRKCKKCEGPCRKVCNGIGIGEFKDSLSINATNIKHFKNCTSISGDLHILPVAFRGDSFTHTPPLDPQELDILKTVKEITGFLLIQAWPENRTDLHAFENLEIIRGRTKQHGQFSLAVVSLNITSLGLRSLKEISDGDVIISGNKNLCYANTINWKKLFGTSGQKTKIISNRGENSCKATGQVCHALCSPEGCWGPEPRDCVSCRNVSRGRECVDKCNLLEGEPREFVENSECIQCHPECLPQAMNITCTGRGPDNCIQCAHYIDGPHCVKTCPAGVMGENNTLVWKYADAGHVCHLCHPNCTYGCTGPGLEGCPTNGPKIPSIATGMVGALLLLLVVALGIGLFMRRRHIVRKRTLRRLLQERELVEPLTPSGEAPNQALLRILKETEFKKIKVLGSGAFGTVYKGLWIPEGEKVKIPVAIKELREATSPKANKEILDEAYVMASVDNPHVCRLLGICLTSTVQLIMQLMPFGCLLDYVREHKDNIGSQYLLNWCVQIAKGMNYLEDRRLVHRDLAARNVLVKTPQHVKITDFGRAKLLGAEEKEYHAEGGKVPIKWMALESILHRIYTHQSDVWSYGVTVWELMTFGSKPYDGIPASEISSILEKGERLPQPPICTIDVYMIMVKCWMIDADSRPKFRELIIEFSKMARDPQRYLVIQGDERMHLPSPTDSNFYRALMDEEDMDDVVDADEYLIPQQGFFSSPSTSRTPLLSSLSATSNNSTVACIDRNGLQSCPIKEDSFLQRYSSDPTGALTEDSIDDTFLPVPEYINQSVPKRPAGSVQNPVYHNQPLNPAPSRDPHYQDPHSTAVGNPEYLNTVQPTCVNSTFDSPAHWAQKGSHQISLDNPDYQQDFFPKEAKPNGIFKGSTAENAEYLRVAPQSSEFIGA

With `C=CC(=O)Nc1cccc(Nc2nc(Nc3ccc(N4CCN(C)CC4)cc3)nc3ccc(F)cc23)c1`, the “inhibition (INH)” value in data set [1] is listed as “Not Active”. Besides, the Activity entry in data set [2] and in data set [6] was “Dose-Dependent Effect” each time. Besides, the inhibition result in data set [3] is “Dose-Dependent Effect”. Further, the inhibition result in data set [4] and in data set [5] was “Active” each time.
